# Measured values: patent US20230085307A1, “PYRIDAZINONE COMPOUND AND HERBICIDE” (NISSAN CHEMICAL CORPORATION, priority 2019, published 2023)
# Columns and labels:
# late watergrass = assay: Test Example 2: herbicidal activity, application during weed generation under submerged conditions (Table 17, symbol A); assay type: in vivo, late watergrass (Echinochloa oryzicola); conditions: AAH 320 g/ha; application during weed generation, submerged conditions
# Summary of the method: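 Effect on each weed is rated three weeks post-treatment, using the same scoring criteria as the preceding test. Plants grow from mixed-sown seed in flooded alluvial soil (4 cm water) at 25° C. to 30° C., and are treated at one to two leaves with diluted emulsion dropped onto the water.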
# barnyard grass [1] = assay: Test Example 3: herbicidal effect by foliage application, Wagner pot (Table 18, symbol H); assay type: in vivo, barnyard grass (Echinochloa crus-galli); conditions: amount of applied herbicide 320 g/ha
# Summary of the method: (§1)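 Plants were sown in alluvial soil held under 0.1–0.5 cm standing water and grown 14 days in a greenhouse at 25–30 °C. An emulsifiable formulation, water-diluted to the set dose, was then sprayed onto the foliage, and effects were scored three weeks later using previously defined criteria.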
# Chinese sprangletop = assay: Test Example 3: herbicidal effect by foliage application, Wagner pot (Table 18, symbol D); assay type: in vivo, chinese sprangletop (Leptochloa chinensis); conditions: amount of applied herbicide 320 g/ha
# Summary of the method: as §1
# southern crabgrass = assay: Test Example 4: herbicidal effect by soil treatment (Table 19, symbol F); assay type: in vivo, southern crabgrass (Digitaria ciliaris); conditions: amount of applied herbicide 320 g/ha
# Summary of the method: (§2)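 In this soil treatment, the formulated compound reached the seeds only through the soil: seeds were buried about 1.5 cm deep in sterilized diluvial soil, then the diluted emulsion was sprayed over the surface. After three weeks at 25° C. to 30° C. in a greenhouse, effects were graded on criteria from an earlier test.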
# barnyard grass [2] = assay: Test Example 4: herbicidal effect by soil treatment (Table 19, symbol H); assay type: in vivo, barnyard grass (Echinochloa crus-galli); conditions: amount of applied herbicide 320 g/ha
# Summary of the method: as §2
# blackgrass [3] = assay: Test Example 4: herbicidal effect by soil treatment (Table 19, symbol J); assay type: in vivo, blackgrass (Alopecurus myosuroides); conditions: amount of applied herbicide 320 g/ha
# Summary of the method: as §2
# redroot pigweed [4] = assay: Test Example 4: herbicidal effect by soil treatment (Table 19, symbol N); assay type: in vivo, redroot pigweed (Amaranthus retroflexus); conditions: amount of applied herbicide 320 g/ha
# Summary of the method: as §2
# lambsquarters = assay: Test Example 4: herbicidal effect by soil treatment (Table 19, symbol O); assay type: in vivo, lambsquarters (Chenopodium album); conditions: amount of applied herbicide 320 g/ha
# Summary of the method: as §2
# chickweed = assay: Test Example 4: herbicidal effect by soil treatment (Table 19, symbol P); assay type: in vivo, common chickweed (Stellaria media); conditions: amount of applied herbicide 320 g/ha
# Summary of the method: as §2
# barnyard grass [5] = assay: Test Example 5: herbicidal effect by foliage application, plastic box (Table 20, symbol H); assay type: in vivo, barnyard grass (Echinochloa crus-galli); conditions: foliage application, 320 g/ha, evaluated three weeks after application
# Summary of the method: (§3)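 Plants were sown into sterilized diluvial soil under about 1.5 cm cover and kept in a greenhouse at 25° C. to 30° C. Fourteen days on, foliage received an even spray of the diluted emulsion. Herbicidal or crop effect was judged three weeks afterwards.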
# wild oat = assay: Test Example 5: herbicidal effect by foliage application, plastic box (Table 20, symbol I); assay type: in vivo, wild oat (Avena fatua); conditions: foliage application, 320 g/ha, evaluated three weeks after application
# Summary of the method: as §3
# blackgrass [6] = assay: Test Example 5: herbicidal effect by foliage application, plastic box (Table 20, symbol J); assay type: in vivo, blackgrass (Alopecurus myosuroides); conditions: foliage application, 320 g/ha, evaluated three weeks after application
# Summary of the method: as §3
# Italian ryegrass = assay: Test Example 5: herbicidal effect by foliage application, plastic box (Table 20, symbol K); assay type: in vivo, Italian ryegrass (Lolium multiflorum); conditions: foliage application, 320 g/ha, evaluated three weeks after application
# Summary of the method: as §3
# velvetleaf = assay: Test Example 5: herbicidal effect by foliage application, plastic box (Table 20, symbol M); assay type: in vivo, velvetleaf (Abutilon theophrasti); conditions: foliage application, 320 g/ha, evaluated three weeks after application
# Summary of the method: as §3
# redroot pigweed [7] = assay: Test Example 5: herbicidal effect by foliage application, plastic box (Table 20, symbol N); assay type: in vivo, redroot pigweed (Amaranthus retroflexus); conditions: foliage application, 320 g/ha, evaluated three weeks after application
# Summary of the method: as §3
# persian speedwell = assay: Test Example 5: herbicidal effect by foliage application, plastic box (Table 20, symbol R); assay type: in vivo, Persian speedwell (Veronica persica); conditions: foliage application, 320 g/ha, evaluated three weeks after application
# Summary of the method: as §3
Structure (SMILES),"herbicidal effect rating, A: late watergrass (late watergrass)",herbicidal effect on H: barnyard grass (barnyard grass [1]),herbicidal effect on D: Chinese sprangletop (Chinese sprangletop),"F: southern crabgrass, herbicidal effect rating (southern crabgrass)","H: barnyard grass, herbicidal effect rating (barnyard grass [2])","J: blackgrass, herbicidal effect rating (blackgrass [3])","N: redroot pigweed, herbicidal effect rating (redroot pigweed [4])","O: lambsquarters, herbicidal effect rating (lambsquarters)","P: chickweed, herbicidal effect rating (chickweed)",herbicidal effect on H: barnyard grass (criteria 0-5) (barnyard grass [5]),herbicidal effect on I: wild oat (criteria 0-5) (wild oat),herbicidal effect on J: blackgrass (criteria 0-5) (blackgrass [6]),herbicidal effect on K: Italian ryegrass (criteria 0-5) (Italian ryegrass),herbicidal effect on M: velvetleaf (criteria 0-5) (velvetleaf),herbicidal effect on N: redroot pigweed (criteria 0-5) (redroot pigweed [7]),herbicidal effect on R: persian speedwell (criteria 0-5) (persian speedwell),other results
CCCC(=O)Oc1c(C)nn(C)c(=O)c1-c1c(-c2ccccc2OC)sc2ccc(C)cc12 [2-139],3 (Herbicidal rate of 40% or more and less than 70%),4 (Herbicidal rate of 70% or more and less than 90%),0 (Herbicidal rate of 5% or less (almost no effect)),0 (Herbicidal rate of 5% or less (almost no effect)),0 (Herbicidal rate of 5% or less (almost no effect)),1 (Herbicidal rate of 5% or more and less than 20%),0 (Herbicidal rate of 5% or less (almost no effect)),0 (Herbicidal rate of 5% or less (almost no effect)),5 (Herbicidal rate of 90% or more (almost completely withered)),,,,,,,,herbicidal effect on H: barnyard grass (barnyard grass [5]): 4 (Herbicidal rate of 70% or more and less than 90%); herbicidal effect on I: wild oat (wild oat): 1 (Herbicidal rate of 5% or more and less than 20%); herbicidal effect on J: blackgrass (blackgrass [6]): 2 (Herbicidal rate of 20% or more and less than 40%); herbicidal effect on K: Italian ryegrass (Italian ryegrass): 1 (Herbicidal rate of 5% or more and less than 20%); herbicidal effect on M: velvetleaf (velvetleaf): 3 (Herbicidal rate of 40% or more and less than 70%); herbicidal effect on N: redroot pigweed (redroot pigweed [7]): 4 (Herbicidal rate of 70% or more and less than 90%); herbicidal effect on R: persian speedwell (persian speedwell): 4 (Herbicidal rate of 70% or more and less than 90%)
C=Cc1ccc2sc(-c3ccccc3OC)c(-c3c(O)c(C)nn(C)c3=O)c2c1 [2-185],3 (Herbicidal rate of 40% or more and less than 70%),3 (Herbicidal rate of 40% or more and less than 70%),0 (Herbicidal rate of 5% or less (almost no effect)),0 (Herbicidal rate of 5% or less (almost no effect)),0 (Herbicidal rate of 5% or less (almost no effect)),0 (Herbicidal rate of 5% or less (almost no effect)),5 (Herbicidal rate of 90% or more (almost completely withered)),1 (Herbicidal rate of 5% or more and less than 20%),0 (Herbicidal rate of 5% or less (almost no effect)),0 (Herbicidal rate of 5% or less (almost no effect)),0 (Herbicidal rate of 5% or less (almost no effect)),1 (Herbicidal rate of 5% or more and less than 20%),0 (Herbicidal rate of 5% or less (almost no effect)),5 (Herbicidal rate of 90% or more (almost completely withered)),5 (Herbicidal rate of 90% or more (almost completely withered)),4 (Herbicidal rate of 70% or more and less than 90%),
Cc1nn(C)c(=O)c(-c2c(-c3ccccc3)sc3ccc(F)cc23)c1O [2-197],3 (Herbicidal rate of 40% or more and less than 70%),5 (Herbicidal rate of 90% or more (almost completely withered)),5 (Herbicidal rate of 90% or more (almost completely withered)),4 (Herbicidal rate of 70% or more and less than 90%),5 (Herbicidal rate of 90% or more (almost completely withered)),3 (Herbicidal rate of 40% or more and less than 70%),5 (Herbicidal rate of 90% or more (almost completely withered)),5 (Herbicidal rate of 90% or more (almost completely withered)),3 (Herbicidal rate of 40% or more and less than 70%),5 (Herbicidal rate of 90% or more (almost completely withered)),4 (Herbicidal rate of 70% or more and less than 90%),4 (Herbicidal rate of 70% or more and less than 90%),4 (Herbicidal rate of 70% or more and less than 90%),5 (Herbicidal rate of 90% or more (almost completely withered)),5 (Herbicidal rate of 90% or more (almost completely withered)),5 (Herbicidal rate of 90% or more (almost completely withered)),
CCCC(=O)Oc1c(C)nn(C)c(=O)c1-c1c(-c2ccccc2)sc2ccc(F)cc12 [2-198],2 (Herbicidal rate of 20% or more and less than 40%),5 (Herbicidal rate of 90% or more (almost completely withered)),5 (Herbicidal rate of 90% or more (almost completely withered)),5 (Herbicidal rate of 90% or more (almost completely withered)),4 (Herbicidal rate of 70% or more and less than 90%),4 (Herbicidal rate of 70% or more and less than 90%),5 (Herbicidal rate of 90% or more (almost completely withered)),4 (Herbicidal rate of 70% or more and less than 90%),4 (Herbicidal rate of 70% or more and less than 90%),3 (Herbicidal rate of 40% or more and less than 70%),4 (Herbicidal rate of 70% or more and less than 90%),4 (Herbicidal rate of 70% or more and less than 90%),5 (Herbicidal rate of 90% or more (almost completely withered)),5 (Herbicidal rate of 90% or more (almost completely withered)),5 (Herbicidal rate of 90% or more (almost completely withered)),5 (Herbicidal rate of 90% or more (almost completely withered)),
Cc1nn(C)c(=O)c(-c2c(-c3ccccc3F)sc3ccc(F)cc23)c1O [2-199],0 (Herbicidal rate of 5% or less (almost no effect)),5 (Herbicidal rate of 90% or more (almost completely withered)),5 (Herbicidal rate of 90% or more (almost completely withered)),2 (Herbicidal rate of 20% or more and less than 40%),4 (Herbicidal rate of 70% or more and less than 90%),0 (Herbicidal rate of 5% or less (almost no effect)),4 (Herbicidal rate of 70% or more and less than 90%),4 (Herbicidal rate of 70% or more and less than 90%),2 (Herbicidal rate of 20% or more and less than 40%),3 (Herbicidal rate of 40% or more and less than 70%),1 (Herbicidal rate of 5% or more and less than 20%),3 (Herbicidal rate of 40% or more and less than 70%),4 (Herbicidal rate of 70% or more and less than 90%),5 (Herbicidal rate of 90% or more (almost completely withered)),5 (Herbicidal rate of 90% or more (almost completely withered)),5 (Herbicidal rate of 90% or more (almost completely withered)),
